Row | melting point | SMILES
1 | 112 to 116 °C | CNC(=O)N(C)c1nnc(SCc2cccc(F)c2)s1
2 | 205 to 207 °C | O=C(O)c1nc(-c2ccc(Cl)cc2Cl)n(-c2ccc(Cl)cc2)c1Br
3 | 151 to 152 °C | COc1cc(OC)nc(O[C@H]2CCCC[C@H]2C(=O)O)n1 (relative stereo)
4 | 170 to 173 °C | COc1ccc2c(Cc3c(Cl)cncc3Cl)nnc(N(C)C)c2c1
5 | 299 to 301 °C | COC(=O)CCCOc1ccc2nc3[nH]c(=O)[nH]c3cc2c1
6 | 245 to 247 °C | Cn1nc(N2c3ccccc3C[C@H]2C(=O)O)ccc1=O
7 | 204 to 206 °C | CC(C)c1csc(/C=C/c2cc(NC(=O)Cc3ccccc3C(=O)O)ccc2Cl)n1
8 | 266 to 268 °C | O=c1[nH]c2cc(Cl)c(Cl)cc2[n+]([O-])c1-c1ccccc1O
9 | 146 °C | Cn1c(=O)n(-c2cc([N+](=O)[O-])c(Cl)cc2F)c(=S)n1C
10 | 175 to 177 °C | CC(=O)Nc1ccc(-c2ccc(C(C)O)o2)cc1 (configuration not stated)
11 | 122 to 124 °C | COc1ccc(NC(=O)c2ccccc2C(c2ccc(O)cc2)c2ccc(O)cc2)c(OC)c1
12 | 131 to 132 °C | Cc1c(Br)c2c(c(C)c1NC(=O)OC(C)(C)C)C(=O)C(C)(C)O2
13 | 107 to 108 °C | COC(=O)c1sc(Cl)c(Cl)c1O
14 | > 250 °C | CC(C)(C)OC(=O)NC1Cc2cccc(c2)CC(C(=O)O)NC(=O)CNC1=O (configuration not stated)
15 | 91 to 94 °C | CCOC(=O)C=C(C)c1ccc(-c2ccc(Cl)cc2)cc1
16 | 142 to 144 °C | CCn1c(C(C)N(C)S(=O)(=O)c2ccc(Cl)c(Cl)c2)cnc1Oc1ccc(Cl)cc1 (configuration not stated)
17 | 227 to 229 °C | COC(=O)c1c([N+](=O)[O-])cccc1S(N)(=O)=O
18 | 145 to 147 °C | COC(=O)CCC(=O)c1cc(NC(C)=O)ccc1O
19 | 70 °C | CN(C)C(=O)Sc1ccccc1C#N
20 | 88 to 89 °C | CCCOc1ccc(S(=O)(=O)N2CCN(CCO)CC2)cc1C(=O)OC

Row | melting point | SMILES
21 | 233 °C | Oc1nc(O)c2occc2n1
22 | 168 to 170 °C | CC(=O)NCC1(C)CC(O)c2ccccc2O1 (configuration not stated)
23 | 132 to 134 °C | CCCCC(=N)NC(=O)Nc1ccccc1Cl
24 | 114 to 115 °C | CC(CC(=O)NC(=O)OC(C)(C)C)Nc1ccc(Cl)cc1 (configuration not stated)
25 | 121 to 122 °C | COc1ccc(C2CN(C)CCC2=NO)cc1 (configuration not stated)
26 | 118 to 119 °C | COc1cc(OC)nc(NC(=O)Oc2ccccc2)n1
27 | 233 to 235 °C | COCc1c(C(=O)OC(C)C)ncc2[nH]c3ccc(I)cc3c12
28 | 140 to 142 °C | COc1ccc(I)cc1C=O
29 | 196 to 199 °C | O=C(CNc1ccc2[nH]c(=O)sc2c1)N1CCC(Cc2ccccc2)CC1
30 | 182 to 185 °C | COc1nc(NC(=O)NS(=O)(=O)c2ccccc2C(=O)OC(C)C)nc(C(F)(F)F)n1
31 | 185 to 187 °C | CNC(=O)C1(CCC#N)c2ccccc2-c2ccccc21
32 | 102 °C | COc1ccc(-c2ccc(C#N)cc2)cc1C(C)=O
33 | 109 to 110 °C | CCOC(=O)c1nc(SC)[nH]c(=O)c1OCc1ccccc1
34 | 126 to 128 °C | COc1ccc(C)cc1NC(=O)Nc1ccc(N2CCN(C(=O)C3CC4CCC3C4)CC2)cc1 (configuration not stated)
35 | 183 °C | CC(=NNC(=O)c1cccc(C(F)(F)F)c1)c1cccnc1
36 | 287 to 288 °C | Cc1c(F)c(F)c(F)c2c1c(=O)c(C(=O)O)cn2-c1ccc(O)cc1
37 | 126 to 128 °C | CCc1oc2ccc(Cl)cc2c1C(=O)c1cc(Br)c(O)c(Br)c1
38 | 205 to 206 °C | COc1cc2ncnc(Nc3cc(Cl)cc(N=[N+]=[N-])c3)c2cc1OC
39 | 182 to 183 °C | Cn1nc2c(c1S(C)(=O)=O)CCCN2c1ccc(Cl)cc1Cl

The remaining lines, values behind:

Row | SMILES | melting point
40 | O=C1N(Cc2ccccn2)c2cccc(Br)c2C12COc1cc3c(cc12)CCO3 (configuration not stated) | > 200 °C
41 | CS(=O)c1ccc(CI)cc1 (configuration not stated) | 80 to 81 °C
42 | CCOc1cc2nc(NC)nc(-c3cccc(-c4cncc(SC)c4)c3)c2cc1OCC | 105 to 107 °C
43 | CC(C)CC1(C(CCN2C(=O)c3ccc4c(ccc5ccccc54)c3C2=O)C(=O)NO)CCN(CCc2ccccc2)C1=O (configuration not stated) | 203 to 205 °C
44 | CCCCCN1C(=O)C2(COc3cc(F)c(F)cc32)c2ccccc21 (configuration not stated) | 48 to 50 °C
45 | CC(C)C1(C)NC(c2ccccc2C(F)(F)F)=NC1=O (configuration not stated) | 109 to 110 °C
46 | O=C1CCC(N2Cc3cc(CNC(=O)c4ccc(Cl)cc4)ccc3C2=O)C(=O)N1 (configuration not stated) | 278 to 280 °C
47 | COc1ccc(CCCC2(Br)C(=O)NC(=O)NC2=O)cc1 | 113 to 114 °C
48 | Cc1oc2ccccc2c1C(=O)NCc1ccc2c(Br)c(OCc3nnn[nH]3)ccc2c1 | 242 to 244 °C
49 | CCCOc1ccc2c(c1)C(c1ccccc1OCCC)C(C(=O)O)C2c1ccc2c(c1)OCO2 (configuration not stated) | 179 to 180 °C
50 | NS(=O)(=O)c1ccc(-c2noc(-c3cnn4c(C(F)F)cc(-c5ccc(Cl)cc5)nc34)n2)s1 | 259 °C
51 | CCOc1cncc(N2CCN3CCCC3C2)n1 (configuration not stated) | 101 to 102 °C
52 | CN1C(=O)C2(COc3cc4c(cc32)OCCO4)c2c(C(=O)O)cccc21 (configuration not stated) | 297 to 299 °C
53 | O=[N+]([O-])c1cnc(-c2ccccc2)nc1Cl | 160 to 161 °C
54 | Cc1nn(-c2ccccc2)c(=O)c2c1c1c(Br)cccc1n2C | 189 to 190 °C
55 | Cc1cc(C(Cc2ccc(CCCc3nc(-c4ccccc4)oc3C)cc2)C(=O)O)on1 (configuration not stated) | 133 to 135 °C
56 | Cc1nc[nH]c(=O)c1Cc1ccccc1 | 140 to 142 °C
57 | CC(=O)CN1C(=O)C(NC(=O)Nc2cccc(-c3nnn[nH]3)c2)N=C(c2ccccc2F)c2cccc(C)c21 (configuration not stated) | 174 to 190 °C
58 | CC(=NN=c1[nH]cccc1Cl)C(F)(F)F | 64 to 64.5 °C
59 | CCn1nc(C#Cc2ccccc2)ccc1=O | 74 to 75 °C
60 | CCCc1nc2ccccc2n1Cc1ccc(C2=C(C(=O)O)CCC2)cc1 | 224 to 226 °C

Row | SMILES | melting point
61 | O=C(O)CCCc1cc2nc(Cl)ccc2n1S(=O)(=O)c1ccccc1OC(F)(F)F | 138 °C
62 | CC(C)[C@H](NC(=O)OCc1ccccn1)C(=O)N[C@@H](Cc1ccccc1)C[C@H](O)[C@H](Cc1ccccc1)NC(=O)OCc1cncs1 | 166 to 168 °C
63 | Cc1ccc(Oc2ccc(-c3ccc(Cl)cc3)cc2)cc1 | 130 °C
64 | O=C(NCCCCCn1ccnc1)c1ccc(Cl)nc1 | 110 to 112 °C
65 | OC(CCl)COc1ccccc1OCC(O)CCl (configuration not stated) | 64 to 66 °C
66 | CC(C)(CO)NC(=O)c1nn(-c2ccc(Cl)cc2)c2c1C1CCC2C1 (configuration not stated) | 167 to 169 °C
67 | C[C@@H](O)C1(c2onc(-c3ccc(O)cc3)c2-c2ccccc2)CC1 | 213 °C
68 | Nc1ccc(NC(=O)N(C[C@H]2CC[C@H](CN(C(=O)Nc3ccc(N)cc3)C3CCCCC3)CC2)C2CCCCC2)cc1 | 185 to 188 °C
69 | Cc1ccccc1-c1ccc(C(=O)N2Cc3ccc(C(=O)NC(C)c4ccccc4)n3Cc3ccccc32)cc1C (configuration not stated) | 118 to 124 °C
70 | CCCc1nc2ncnn2c(N)c1CCc1ccccc1 | 190 to 191 °C
71 | Clc1ccc(N=Cc2ccc(-c3noc4ccccc34)cc2)cc1 | 164 to 165 °C
72 | COc1cc(OC)c(-c2nc(NC(=O)c3cc4cc(C)cc(C)c4n3CC(=O)O)sc2CCC2CCCCC2)cc1Br | 221 to 222 °C
73 | CS(=O)(=O)CS(=O)(=O)OCCCl | 60 to 62 °C
74 | Cc1cnc2n(c1=O)CCC2 | 82 °C
75 | O=C(c1cc2cc(OCCNC[C@H](O)COc3ccccc3)ccc2[nH]1)N1CCCC1 | 110 to 115 °C
76 | Cc1c[nH]c(-c2nc([C@H]3CCCN(C(=O)c4ccc(F)cc4)C3)no2)c1 | 183 °C
77 | CS(=O)(=O)CCc1nc2nc[nH]c2c2nc(-c3ccc(-c4ccccc4)cc3)nn12 | 280 °C
78 | CCCCCCOc1ccc2c(ccc3nc(OCCCCCC)ccc32)n1 | 91 °C
79 | Nc1c2c(=O)n3c(nc2nn1CC(F)(F)F)SCC3 | 285 to 288 °C
80 | CCOC(=O)c1nn(-c2ccc(CP(=O)(OCC)OCC)cc2)nc1C | 60 to 62 °C
81 | CC(=O)N1CCC(c2nc(-c3ccncc3)c(-c3ccc(F)cc3)[nH]2)CC1 | 235 to 236 °C

Row | SMILES | melting point
82 | CCCc1c(OCCCOc2ccc(C(=O)NCCCCc3cccnc3)cc2)ccc(C(C)=O)c1O | 133 to 134 °C
83 | CC(=O)OCC1OC(OS(C)(=O)=S)C(OC(C)=O)C(OC(C)=O)C1OC(C)=O (configuration not stated) | 118 to 119 °C
84 | CC(=O)NCC(C)n1nnnc1S (configuration not stated) | 176 to 178 °C
85 | C=C1Oc2cc(OS(=O)(=O)C(F)(F)F)ccc2C(=O)C1c1ccccc1 (configuration not stated) | 133 to 135 °C
86 | COc1ccc(/C=C/C(=O)C2C(=O)CC(c3ccc(OC)cc3)C([N+](=O)[O-])C2c2ccc(OC)cc2)cc1 (configuration not stated) | 200 to 202 °C
87 | OCc1cn(-c2ccccc2)nc1OCc1ccccc1 | 93 to 94 °C
88 | CCCCc1ncc(/C=C(\Cc2cccs2)C(=O)O)n1Cc1ccc(C=CC(=O)O)cc1 | 199 to 203 °C
89 | CC1CC(N)=NN1c1cccc(Cl)n1 (configuration not stated) | 105 to 107 °C
90 | COc1c(OCc2ccccc2)ccc2[nH]ccc(=O)c12 | 180 °C
91 | O=C(CCN1C(=O)c2ccccc2C1=O)c1ccc(Cl)cc1C(=O)c1ccccc1 | 163 to 164 °C
92 | COc1ccc2c(c1)C(=O)C(=Cc1cccc([N+](=O)[O-])c1)C(C)(C)O2 | 103 to 105 °C
93 | N#Cc1c(N2CCNCC2)c2cc(Cl)ccc2n(Cc2ccccc2)c1=O | 156 °C
94 | C=CC(=O)OC1(C)CCCC2C3C=CC(C3)C21 (configuration not stated) | 41 to 42 °C
95 | Cc1nc[nH]c1CSCCNc1nc(C)c(Cc2ccccc2)c(=O)[nH]1 | 140 to 142 °C
96 | CCCCc1nc(SC)c(C(C)=O)n1Cc1ccc(-c2ccccc2S(=O)(=O)NC(=O)NCCC)cc1 | 176 to 177 °C
97 | CC1(C)CS(=O)(=O)CC(C)(C)c2[nH]c(-c3ccccc3)nc21 | 260 to 263 °C
98 | CCc1noc(-c2cc3c(cn2)[nH]c2ccccc23)n1 | 146 to 149 °C
99 | CCOC(=O)c1nc2n(n1)-c1sc(C)c(C)c1C(c1ccccc1)=NC2 | 173 to 174 °C
100 | O=C(Nc1ccc(-n2nc(C3CC3)cc2C2CC2)cc1)c1ccccc1 | 133 to 138 °C
101 | CSc1nc2ncccc2c2nnc(SCc3ccccc3)n12 | 157 to 158 °C
102 | Oc1ccc(-c2cc3ccccc3nc2Cl)cc1 | 164 to 166 °C
